Assay results taken from the supplement of paper PMC10307832.

How the values were obtained:
Test in all cases: relative viability (nuclei count vs DMSO), 5 days (fraction); higher = more cells survive
NCI-H2170 = system: NCI-H2170
Outline: (§1)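 Lung cancer cell lines in 1536-well plates were dosed by pin tool the day after seeding, either with one drug alone or with a fixed anchor-drug dose plus five library-drug doses (not always all listed) in √10 steps. After 5 days, cells were fixed and their nuclei stained in one step (final 0.05% Triton X-100, 1% formaldehyde, 1 ug/ml Hoechst), then counted on 4× images. Relative viability is the nuclei count in treated wells divided by that in vehicle wells. Values are medians of duplicate plates.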

NCI-H460 = system: NCI-H460
Outline: as §1

HCC-366 = system: HCC-366
Outline: as §1

HCC-78 = system: HCC-78
Outline: as §1

COR-L 105 = system: COR-L 105
Outline: as §1

NCI-H1944 = system: NCI-H1944
Outline: as §1

LCLC-97TM1 = system: LCLC-97TM1
Outline: as §1

UMC-11 = system: UMC-11
Outline: as §1

NCI-H1975 = system: NCI-H1975
Outline: as §1

A-427 = system: A-427
Outline: as §1

SK-LU-1 = system: SK-LU-1
Outline: as §1

EPLC-272H = system: EPLC-272H
Outline: as §1

NCI-H1792 = system: NCI-H1792
Outline: as §1

NCI-H358 = system: NCI-H358
Outline: as §1

SW 900 = system: SW 900
Outline: as §1

NCI-H2085 = system: NCI-H2085
Outline: as §1

HOP-62 = system: HOP-62
Outline: as §1

LC-2-ad = system: LC-2-ad
Outline: as §1

LU99A = system: LU99A
Outline: as §1

LXF-289 = system: LXF-289
Outline: as §1

NCI-H2342 = system: NCI-H2342
Outline: as §1

NCI-H1755 = system: NCI-H1755
Outline: as §1

NCI-H1915 = system: NCI-H1915
Outline: as §1

NCI-H1793 = system: NCI-H1793
Outline: as §1

Clc1ccc(Nc2nnc(Cc3ccncc3)c3ccccc23)cc1 [Vatalanib] + CC(=O)Nc1cccc(-n2c(=O)n(C3CC3)c(=O)c3c(Nc4ccc(I)cc4F)n(C)c(=O)c(C)c32)c1 [Trametinib] (partner 0.02 µM)
relative viability (NCI-H2170; first compound 0.04 µM): 0.926 | relative viability (NCI-H2170; first compound 0.1265 µM): 0.857 | relative viability (NCI-H2170; first compound 0.4 µM): 0.856 | relative viability (NCI-H2170; first compound 1.265 µM): 0.892 | relative viability (NCI-H2170; first compound 4 µM): 0.899 | relative viability (NCI-H460; first compound 0.04 µM): 0.178 | relative viability (NCI-H460; first compound 0.1265 µM): 0.11 | relative viability (NCI-H460; first compound 0.4 µM): 0.201 | relative viability (NCI-H460; first compound 1.265 µM): 0.135 | relative viability (NCI-H460; first compound 4 µM): 0.0924 | relative viability (HCC-366; first compound 0.04 µM): 0.393 | relative viability (HCC-366; first compound 0.1265 µM): 0.294 | relative viability (HCC-366; first compound 0.4 µM): 0.372 | relative viability (HCC-366; first compound 1.265 µM): 0.306 | relative viability (HCC-366; first compound 4 µM): 0.299 | relative viability (HCC-78; first compound 0.04 µM): 0.729 | relative viability (HCC-78; first compound 0.1265 µM): 0.794 | relative viability (HCC-78; first compound 0.4 µM): 0.809 | relative viability (HCC-78; first compound 1.265 µM): 0.822 | relative viability (HCC-78; first compound 4 µM): 0.694 | relative viability (COR-L 105; first compound 0.04 µM): 0.451 | relative viability (COR-L 105; first compound 0.1265 µM): 0.363 | relative viability (COR-L 105; first compound 0.4 µM): 0.427 | relative viability (COR-L 105; first compound 1.265 µM): 0.443 | relative viability (COR-L 105; first compound 4 µM): 0.426 | relative viability (NCI-H1944; first compound 0.04 µM): 0.42 | relative viability (NCI-H1944; first compound 0.1265 µM): 0.373 | relative viability (NCI-H1944; first compound 0.4 µM): 0.438 | relative viability (NCI-H1944; first compound 1.265 µM): 0.425 | relative viability (NCI-H1944; first compound 4 µM): 0.386 | relative viability (LCLC-97TM1; first compound 0.04 µM): 0.18 | relative viability (LCLC-97TM1; first compound 0.1265 µM): 0.197 | relative viability (LCLC-97TM1; first compound 0.4 µM): 0.198 | relative viability (LCLC-97TM1; first compound 1.265 µM): 0.195 | relative viability (LCLC-97TM1; first compound 4 µM): 0.184 | relative viability (UMC-11; first compound 0.04 µM): 0.761 | relative viability (UMC-11; first compound 0.1265 µM): 0.769 | relative viability (UMC-11; first compound 0.4 µM): 0.418 | relative viability (UMC-11; first compound 1.265 µM): 0.688 | relative viability (UMC-11; first compound 4 µM): 0.847 | relative viability (NCI-H1975; first compound 0.04 µM): 0.317 | relative viability (NCI-H1975; first compound 0.1265 µM): 0.345 | relative viability (NCI-H1975; first compound 0.4 µM): 0.434 | relative viability (NCI-H1975; first compound 1.265 µM): 0.315 | relative viability (NCI-H1975; first compound 4 µM): 0.361 | relative viability (A-427; first compound 0.04 µM): 0.741 | relative viability (A-427; first compound 0.1265 µM): 0.743 | relative viability (A-427; first compound 0.4 µM): 0.867 | relative viability (A-427; first compound 4 µM): 0.73 | relative viability (SK-LU-1; first compound 0.04 µM): 0.59 | relative viability (SK-LU-1; first compound 0.1265 µM): 0.54 | relative viability (SK-LU-1; first compound 0.4 µM): 0.666 | relative viability (SK-LU-1; first compound 1.265 µM): 0.533 | relative viability (SK-LU-1; first compound 4 µM): 0.599 | relative viability (EPLC-272H; first compound 0.04 µM): 0.284 | relative viability (EPLC-272H; first compound 0.1265 µM): 0.247 | relative viability (EPLC-272H; first compound 0.4 µM): 0.327 | relative viability (EPLC-272H; first compound 1.265 µM): 0.264 | relative viability (EPLC-272H; first compound 4 µM): 0.268 | relative viability (NCI-H1792; first compound 0.04 µM): 0.528 | relative viability (NCI-H1792; first compound 0.1265 µM): 0.395 | relative viability (NCI-H1792; first compound 0.4 µM): 0.394 | relative viability (NCI-H1792; first compound 1.265 µM): 0.399 | relative viability (NCI-H1792; first compound 4 µM): 0.456 | relative viability (NCI-H358; first compound 0.04 µM): 0.156 | relative viability (NCI-H358; first compound 0.1265 µM): 0.122 | relative viability (NCI-H358; first compound 0.4 µM): 0.151 | relative viability (NCI-H358; first compound 1.265 µM): 0.13 | relative viability (NCI-H358; first compound 4 µM): 0.138 | relative viability (SW 900; first compound 0.04 µM): 0.768 | relative viability (SW 900; first compound 0.1265 µM): 0.696 | relative viability (SW 900; first compound 0.4 µM): 0.558 | relative viability (SW 900; first compound 1.265 µM): 0.877 | relative viability (SW 900; first compound 4 µM): 0.714 | relative viability (NCI-H2085; first compound 0.04 µM): 0.516 | relative viability (NCI-H2085; first compound 0.1265 µM): 0.384 | relative viability (NCI-H2085; first compound 0.4 µM): 0.645 | relative viability (NCI-H2085; first compound 1.265 µM): 0.484 | relative viability (NCI-H2085; first compound 4 µM): 0.735 | relative viability (HOP-62; first compound 0.04 µM): 0.388 | relative viability (HOP-62; first compound 0.1265 µM): 0.382 | relative viability (HOP-62; first compound 0.4 µM): 0.42 | relative viability (HOP-62; first compound 1.265 µM): 0.367 | relative viability (HOP-62; first compound 4 µM): 0.355 | relative viability (LC-2-ad; first compound 0.04 µM): 0.97 | relative viability (LC-2-ad; first compound 0.1265 µM): 0.77 | relative viability (LC-2-ad; first compound 0.4 µM): 0.965 | relative viability (LC-2-ad; first compound 1.265 µM): 0.919 | relative viability (LC-2-ad; first compound 4 µM): 0.892 | relative viability (LU99A; first compound 0.04 µM): 0.563 | relative viability (LU99A; first compound 0.1265 µM): 0.527 | relative viability (LU99A; first compound 0.4 µM): 0.647 | relative viability (LU99A; first compound 1.265 µM): 0.492 | relative viability (LU99A; first compound 4 µM): 0.521 | relative viability (LXF-289; first compound 0.04 µM): 0.688 | relative viability (LXF-289; first compound 0.1265 µM): 0.647 | relative viability (LXF-289; first compound 0.4 µM): 0.686 | relative viability (LXF-289; first compound 1.265 µM): 0.668 | relative viability (LXF-289; first compound 4 µM): 0.626 | relative viability (NCI-H2342; first compound 0.04 µM): 0.766 | relative viability (NCI-H2342; first compound 0.1265 µM): 0.794 | relative viability (NCI-H2342; first compound 0.4 µM): 0.737 | relative viability (NCI-H2342; first compound 1.265 µM): 0.747 | relative viability (NCI-H2342; first compound 4 µM): 0.804 | relative viability (NCI-H1755; first compound 0.04 µM): 0.734 | relative viability (NCI-H1755; first compound 0.1265 µM): 0.812 | relative viability (NCI-H1755; first compound 0.4 µM): 0.753 | relative viability (NCI-H1755; first compound 1.265 µM): 0.788 | relative viability (NCI-H1755; first compound 4 µM): 0.717 | relative viability (NCI-H1915; first compound 0.04 µM): 0.32 | relative viability (NCI-H1915; first compound 0.1265 µM): 0.34 | relative viability (NCI-H1915; first compound 0.4 µM): 0.323 | relative viability (NCI-H1915; first compound 1.265 µM): 0.298 | relative viability (NCI-H1915; first compound 4 µM): 0.295 | relative viability (NCI-H1793; first compound 0.04 µM): 0.372 | relative viability (NCI-H1793; first compound 0.1265 µM): 0.494 | relative viability (NCI-H1793; first compound 0.4 µM): 0.424 | relative viability (NCI-H1793; first compound 1.265 µM): 0.388 | relative viability (NCI-H1793; first compound 4 µM): 0.425
